Reference: the supplement of paper PMC11451515

Tests used:
Conditions in all cases: 48 h
SEM cells = assay: cell viability relative to DMSO control; higher = less cytotoxic
Procedure, shortened: (§1)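 Viability was expressed as a per-plate percentage of DMSO wells, with cell-free wells as background. Leukemia cells (NOMO1 or SEM at 500 cells/well, P12-Ichikawa at 1000 cells/well) were adapted for at least four passages in each medium and seeded in 1536-well plates (5 μl). Library compounds in DMSO were pin-dosed over an 11-point threefold series from 47 μM to 0.79 nM, and CellTiter-Glo One luminescence was read after 48 h at 37°C.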

P12-Ichikawa [1] = assay: as above
Procedure, shortened: as §1

NOMO1 [2] = assay: as above
Procedure, shortened: as §1

P12-Ichikawa [3] = assay: AUC of viability dose-response curve (% viability x log10 dose units); higher = less sensitive
Procedure, shortened: (§2)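 Area under the curve was integrated by trapezoidal rule from a log-logistic fit of normalised viability, with curves exceeding full viability scaled and quality-control failures removed. The fit had four parameters over log10 doses. Viability came from CellTiter-Glo One luminescence, normalised per plate to DMSO and cell-free wells, after leukemia cells adapted to each medium (500 or 1000 cells/well, 1536-well plates) were exposed to library compounds in DMSO for 48 h at 37°C. The 11 threefold doses ran from 47 μM to 0.79 nM.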

NOMO1 [4] = assay: as above
Procedure, shortened: as §2

COC1=CC2=C(C=C1CC3=C(F)C(=CC=C3)Cl)C(=O)\C(=C/N2[C@H](CO)C(C)C)C(O)=O
cell viability [%]
Conditions | NOMO1 [2] | P12-Ichikawa [1] | SEM cells
HPLM + 10% dialyzed FBS, 0.000781 µM | 122 | 125 | 120
HPLM + 10% dialyzed FBS, 0.00234 µM | 142 | 123 | 120
HPLM + 10% dialyzed FBS, 0.00702 µM | 123 | 122 | 119
HPLM + 10% dialyzed FBS, 0.0211 µM | 128 | 107 | 26.7
HPLM + 10% dialyzed FBS, 0.0632 µM | 114 | 121 | 115
HPLM + 10% dialyzed FBS, 0.19 µM | 131 | 119 | 133
HPLM + 10% dialyzed FBS, 0.569 µM | 124 | 114 | 113
HPLM + 10% dialyzed FBS, 1.71 µM | 118 | 115 | 106
HPLM + 10% dialyzed FBS, 5.12 µM | 127 | 110 | 117
HPLM + 10% dialyzed FBS, 15.4 µM | 89.6 | 95.9 | 93.7
HPLM + 10% dialyzed FBS, 46.1 µM | 27.7 | 13.4 | 23.7
RPMI 5 mM glucose + 10% FBS, 0.000781 µM | 115 | – | –
RPMI 5 mM glucose + 10% FBS, 0.00234 µM | 117 | – | –
RPMI 5 mM glucose + 10% FBS, 0.00702 µM | 109 | – | –
RPMI 5 mM glucose + 10% FBS, 0.0211 µM | 104 | – | –
RPMI 5 mM glucose + 10% FBS, 0.0632 µM | 115 | – | –
RPMI 5 mM glucose + 10% FBS, 0.19 µM | 129 | – | –
RPMI 5 mM glucose + 10% FBS, 0.569 µM | 108 | – | –
RPMI 5 mM glucose + 10% FBS, 1.71 µM | 102 | – | –
RPMI 5 mM glucose + 10% FBS, 5.12 µM | 110 | – | –
RPMI 5 mM glucose + 10% FBS, 15.4 µM | 102 | – | –
RPMI 5 mM glucose + 10% FBS, 46.1 µM | 14.7 | – | –
RPMI 5 mM glucose + 10% dialyzed FBS, 0.000781 µM | 110 | 116 | –
RPMI 5 mM glucose + 10% dialyzed FBS, 0.00234 µM | 118 | 125 | –
RPMI 5 mM glucose + 10% dialyzed FBS, 0.00702 µM | 138 | 124 | –
RPMI 5 mM glucose + 10% dialyzed FBS, 0.0211 µM | 130 | 117 | –
RPMI 5 mM glucose + 10% dialyzed FBS, 0.0632 µM | 131 | 125 | –
RPMI 5 mM glucose + 10% dialyzed FBS, 0.19 µM | 129 | 121 | –
RPMI 5 mM glucose + 10% dialyzed FBS, 0.569 µM | 123 | 119 | –
RPMI 5 mM glucose + 10% dialyzed FBS, 1.71 µM | 118 | 112 | –
RPMI 5 mM glucose + 10% dialyzed FBS, 5.12 µM | 123 | 103 | –
RPMI 5 mM glucose + 10% dialyzed FBS, 15.4 µM | 115 | 67.3 | –
RPMI 5 mM glucose + 10% dialyzed FBS, 46.1 µM | 24.7 | 10 | –

AUC of viability dose-response curve
Conditions | HPLM + 10% dialyzed FBS | RPMI 5 mM glucose + 10% FBS | RPMI 5 mM glucose + 10% dialyzed FBS
NOMO1 [4] | 445 | 452 | 454
P12-Ichikawa [3] | 446 | 421 | 423

CCCCc1ccc(N[S+](=O)([O-])c2ccc(C)c(C(=O)N3CCN(c4cccc(C)c4C)CC3)c2)cc1
Conditions | cell viability [%]
NOMO1 [2], RPMI 5 mM glucose + 10% dialyzed FBS, 0.000781 µM | 125
NOMO1 [2], RPMI 5 mM glucose + 10% dialyzed FBS, 0.00234 µM | 128
NOMO1 [2], RPMI 5 mM glucose + 10% dialyzed FBS, 0.00702 µM | 120
NOMO1 [2], RPMI 5 mM glucose + 10% dialyzed FBS, 0.0211 µM | 126
NOMO1 [2], RPMI 5 mM glucose + 10% dialyzed FBS, 0.0632 µM | 126
NOMO1 [2], RPMI 5 mM glucose + 10% dialyzed FBS, 0.19 µM | 130
NOMO1 [2], RPMI 5 mM glucose + 10% dialyzed FBS, 0.569 µM | 130
NOMO1 [2], RPMI 5 mM glucose + 10% dialyzed FBS, 1.71 µM | 119
NOMO1 [2], RPMI 5 mM glucose + 10% dialyzed FBS, 5.12 µM | 131
NOMO1 [2], RPMI 5 mM glucose + 10% dialyzed FBS, 15.4 µM | 126
NOMO1 [2], RPMI 5 mM glucose + 10% dialyzed FBS, 46.1 µM | 108
P12-Ichikawa [1], HPLM + 10% dialyzed FBS, 0.000781 µM | 125
P12-Ichikawa [1], HPLM + 10% dialyzed FBS, 0.00234 µM | 125
P12-Ichikawa [1], HPLM + 10% dialyzed FBS, 0.00702 µM | 122
P12-Ichikawa [1], HPLM + 10% dialyzed FBS, 0.0211 µM | 96.6
P12-Ichikawa [1], HPLM + 10% dialyzed FBS, 0.0632 µM | 118
P12-Ichikawa [1], HPLM + 10% dialyzed FBS, 0.19 µM | 125
P12-Ichikawa [1], HPLM + 10% dialyzed FBS, 0.569 µM | 121
P12-Ichikawa [1], HPLM + 10% dialyzed FBS, 1.71 µM | 122
P12-Ichikawa [1], HPLM + 10% dialyzed FBS, 5.12 µM | 120
P12-Ichikawa [1], HPLM + 10% dialyzed FBS, 15.4 µM | 105
P12-Ichikawa [1], HPLM + 10% dialyzed FBS, 46.1 µM | 106
SEM cells, RPMI 5 mM glucose + 10% FBS, 0.000781 µM | 120
SEM cells, RPMI 5 mM glucose + 10% FBS, 0.00234 µM | 124
SEM cells, RPMI 5 mM glucose + 10% FBS, 0.00702 µM | 138
SEM cells, RPMI 5 mM glucose + 10% FBS, 0.0211 µM | 17.1
SEM cells, RPMI 5 mM glucose + 10% FBS, 0.0632 µM | 129
SEM cells, RPMI 5 mM glucose + 10% FBS, 0.19 µM | 118
SEM cells, RPMI 5 mM glucose + 10% FBS, 0.569 µM | 137
SEM cells, RPMI 5 mM glucose + 10% FBS, 1.71 µM | 126
SEM cells, RPMI 5 mM glucose + 10% FBS, 5.12 µM | 119
SEM cells, RPMI 5 mM glucose + 10% FBS, 15.4 µM | 106
SEM cells, RPMI 5 mM glucose + 10% FBS, 46.1 µM | 98.2
SEM cells, RPMI 5 mM glucose + 10% dialyzed FBS, 0.000781 µM | 117
SEM cells, RPMI 5 mM glucose + 10% dialyzed FBS, 0.00234 µM | 96.2
SEM cells, RPMI 5 mM glucose + 10% dialyzed FBS, 0.00702 µM | 127
SEM cells, RPMI 5 mM glucose + 10% dialyzed FBS, 0.0211 µM | 21.2
SEM cells, RPMI 5 mM glucose + 10% dialyzed FBS, 0.0632 µM | 118
SEM cells, RPMI 5 mM glucose + 10% dialyzed FBS, 0.19 µM | 118
SEM cells, RPMI 5 mM glucose + 10% dialyzed FBS, 0.569 µM | 106
SEM cells, RPMI 5 mM glucose + 10% dialyzed FBS, 1.71 µM | 117
SEM cells, RPMI 5 mM glucose + 10% dialyzed FBS, 5.12 µM | 107
SEM cells, RPMI 5 mM glucose + 10% dialyzed FBS, 15.4 µM | 117
SEM cells, RPMI 5 mM glucose + 10% dialyzed FBS, 46.1 µM | 84.9

AUC of viability dose-response curve
Conditions | HPLM + 10% dialyzed FBS | RPMI 5 mM glucose + 10% FBS | RPMI 5 mM glucose + 10% dialyzed FBS
NOMO1 [4] | 457 | 435 | 473
P12-Ichikawa [3] | 468 | 468 | 464
